Assay results from patent publication US8809341B2, “2,4-pyrimidinediamine compounds and uses as anti-proliferative agents” (Rigel Pharmaceuticals, Inc., priority 2003, dated 2014).
pIC50: −log10 of the molar value.

Legend:
[1] = tested on: H1299 cells; test: in vitro antiproliferation assay, H1299 (lung); type: cell-based; conditions: in vitro antiproliferation, H1299 (lung) cells
Outline: (§1)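 Standard in vitro antiproliferation assays on tumour cell lines, including A549 and H1299 (both lung); IC50 values determined.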

[2] = tested on: A549 cells; test: in vitro antiproliferation assay, A549 (lung); type: cell-based; conditions: in vitro antiproliferation, A549 (lung) cells
Outline: as §1

Structure (SMILES)	pIC50 ([1]; Table 7)	pIC50 ([2]; Table 7)	pIC50 [1]	pIC50 [2]
COc1cc(Nc2nc(Nc3ccc4oc(C(=O)O)cc4c3)ncc2F)cc(OC)c1 [compound 657]	< 4.70	< 4.70		
COc1cc(Nc2nc(Nc3ccc4[nH]c(C(C)=O)cc4c3)ncc2F)cc(OC)c1 [compound 658]	≥ 4.70	< 4.70		
COC(=O)c1cc2cccc(Nc3ncc(F)c(N(C)c4ccc5c(c4)OCCO5)n3)c2o1 [compound 661]	< 4.70	< 4.70		
COC(=O)c1cc2cc(Nc3ncc(F)c(N(C)c4cc(OC)cc(OC)c4)n3)ccc2o1 [compound 662]	≥ 4.70	< 4.70		
CNC(=O)c1cc2cccc(Nc3ncc(F)c(N(C)c4cc(OC)cc(OC)c4)n3)c2[nH]1 [compound 663]	≥ 4.70	≥ 4.70		
CCOC(=O)c1cc2cccc(Nc3ncc(F)c(Nc4ccc(OC)c(OC)c4)n3)c2[nH]1 [compound 664]	≥ 4.70	≥ 4.70		
CNC(=O)c1cc2cccc(Nc3ncc(F)c(Nc4ccc(OC)c(OC)c4)n3)c2[nH]1 [compound 665]	≥ 4.70	≥ 4.70		
CCOC(=O)c1cc2cccc(Nc3ncc(F)c(N(C)c4ccc(OC)c(OC)c4)n3)c2[nH]1 [compound 666]	≥ 4.70	≥ 4.70		
CNC(=O)c1cc2cccc(Nc3ncc(F)c(Nc4cc(C)cc(C)c4)n3)c2[nH]1 [compound 668]	≥ 4.70	< 4.70		
CNC(=O)c1cc2cccc(Nc3ncc(F)c(Nc4cc(OC)cc(C(F)(F)F)c4)n3)c2[nH]1 [compound 669]	≥ 4.70	≥ 4.70		
CNC(=O)c1cc2cccc(Nc3ncc(F)c(Nc4ccc5c(c4)OC(F)(F)O5)n3)c2[nH]1 [compound 670]	< 4.70	< 4.70		
COC(=O)c1cc2cc(Nc3ncc(F)c(N(C)c4ccc(OC)c(Cl)c4)n3)ccc2o1 [compound 671]	< 4.70	< 4.70		
COC(=O)c1cc2cc(Nc3ncc(F)c(N(C)c4cc(C)c(Cl)c(C)c4)n3)ccc2o1 [compound 672]	< 4.70	< 4.70		
CCOC(=O)c1cc2cccc(Nc3ncc(F)c(NC4CCC4)n3)c2[nH]1 [compound 678]	< 4.70	< 4.70		
CNC(=O)COc1cccc(Nc2nc(Nc3ccc(OCCN(C)C)cc3)ncc2F)c1 [compound 694]			≥ 4.70	≥ 4.70
CNC(=O)COc1cccc(Nc2ncc(F)c(Nc3ccc(Cl)c(Cl)c3)n2)c1 [compound 697]			≥ 4.70	≥ 4.70
Fc1cnc(Nc2ccc(C(F)(F)F)cc2)nc1Nc1ccc(C(F)(F)F)cc1 [compound 701]			< 4.70	< 4.70
COc1ccc(Nc2ncc(F)c(Nc3ccc(OC)cc3)n2)cc1 [compound 702]			≥ 4.70	≥ 4.70
CCOc1ccc(Nc2ncc(F)c(Nc3ccc(OCC)cc3)n2)cc1 [compound 704]			≥ 4.70	≥ 4.70
CCOc1ccc(Nc2ncc(F)c(Nc3ccc(OC)c(OC)c3)n2)cc1 [compound 713]			≥ 4.70	≥ 4.70
CC(C)(C)c1ccc(Nc2ncc(F)c(Nc3ccc(C(C)(C)C)cc3)n2)cc1 [compound 718]			< 4.70	< 4.70
Fc1ccc(Nc2ncc(F)c(Nc3ccc(F)c(Cl)c3)n2)cc1Cl [compound 719]			< 4.70	< 4.70
Fc1ccc(Nc2ncc(F)c(Nc3ccc(F)cc3)n2)cc1 [compound 720]			< 4.70	≥ 4.70
Cc1ccc(Nc2ncc(F)c(Nc3ccc(C)cc3)n2)cc1 [compound 721]			< 4.70	< 4.70
COC(=O)COc1cccc(Nc2ncc(F)c(Nc3cccc(OCC(=O)OC)c3)n2)c1 [compound 724]			≥ 4.70	< 4.70

Structure (SMILES)	pIC50 ([1]; Table 7)	pIC50 ([2]; Table 7)	pIC50 [1]	pIC50 [2]
CNC(=O)COc1cc(Nc2ncc(F)c(Nc3ccc(C)c(OCC(=O)NC)c3)n2)ccc1C [compound 759]			≥ 4.70	≥ 4.70
COc1cc(Nc2nc(Nc3cccc(O)c3)ncc2F)cc(OC)c1 [compound 768]			≥ 4.70	≥ 4.70
CCOC(=O)COc1cccc(Nc2nc(Nc3cc(OC)cc(OC)c3)ncc2F)c1 [compound 769]			< 4.70	< 4.70
CCOc1ccc(Nc2nc(Nc3cccc(OCC(=O)NC)c3)ncc2F)cc1 [compound 772]			≥ 4.70	≥ 4.70
Oc1cccc(Nc2nc(Nc3ccc(OC(F)(F)F)c(Cl)c3)ncc2F)c1 [compound 781]			≥ 4.70	≥ 4.70
C=CCNC(=O)COc1cccc(Nc2nc(Nc3cccc(OCC(=O)NC)c3)ncc2F)c1 [compound 791]			≥ 4.70	≥ 4.70
CNC(=O)COc1cc(O)cc(Nc2ncc(F)c(Nc3cccc(O)c3)n2)c1 [compound 797]			< 4.70	≥ 4.70
CNC(=O)COc1cc(Nc2ncc(F)c(Nc3cccc(O)c3)n2)cc(OCC(=O)NC)c1 [compound 798]			< 4.70	< 4.70
COc1ccc(Nc2ncc(F)c(Nc3ccc(OC)c(Cl)c3)n2)cc1Cl [compound 800]			< 4.70	≥ 4.70
COc1ccc(Nc2nc(Nc3cc(C)c(OC)c(Cl)c3)ncc2F)cc1Cl [compound 802]			< 4.70	< 4.70
COc1cc(Nc2ncc(F)c(Nc3ccc(N4CCOCC4)c(Cl)c3)n2)cc(C(F)(F)F)c1 [compound 806]			≥ 4.70	≥ 4.70
COc1ccc(Nc2nc(Nc3cc(Cl)cc(Cl)c3)ncc2F)cc1Cl [compound 808]			≥ 4.70	≥ 4.70
COc1cc(Nc2ncc(F)c(Nc3ccc(OC)c(Cl)c3)n2)cc(C(F)(F)F)c1 [compound 810]			< 4.70	≥ 4.70
COc1ccc(Nc2nc(Nc3cc(C)c(C)c(C)c3)ncc2F)cc1Cl [compound 811]			< 4.70	≥ 4.70
COc1cc(Nc2ncc(F)c(Nc3cccc(OC(F)(F)F)c3)n2)cc(OC)c1 [compound 812]			≥ 4.70	≥ 4.70
Cc1cc(C)cc(Nc2ncc(F)c(Nc3cccc(OC(F)(F)F)c3)n2)c1 [compound 813]			< 4.70	< 4.70
COc1cc(Nc2ncc(F)c(Nc3cc(C)cc(C)c3)n2)cc(OC)c1 [compound 814]			≥ 4.70	≥ 4.70
COc1cc(Nc2ncc(F)c(Nc3cc(C)cc(C)c3)n2)cc(C(F)(F)F)c1 [compound 815]			≥ 4.70	≥ 4.70
Cc1cc(C)cc(Nc2nc(Nc3cc(C)cc(C(F)(F)F)c3)ncc2F)c1 [compound 816]			< 4.70	≥ 4.70
COc1cc(Nc2nc(Nc3cc(C)cc(C)c3)ncc2F)cc(C(F)(F)F)c1 [compound 817]			≥ 4.70	≥ 4.70
COc1cc(Nc2ncc(F)c(Nc3cc(OC)cc(C(F)(F)F)c3)n2)cc(OC)c1 [compound 818]			≥ 4.70	≥ 4.70
COc1cc(Nc2ncc(F)c(Nc3cc(OC)cc(C(F)(F)F)c3)n2)cc(C(F)(F)F)c1 [compound 819]			≥ 4.70	≥ 4.70
COc1cc(Nc2nc(Nc3cc(C)cc(C(F)(F)F)c3)ncc2F)cc(C(F)(F)F)c1 [compound 820]			≥ 4.70	< 4.70
COc1cc(Nc2nc(Nc3cc(OC)c(OC)c(OC)c3)ncc2F)cc(C(F)(F)F)c1 [compound 821]			≥ 4.70	≥ 4.70
COc1cc(Nc2nc(Nc3cc(C)c(O)c(Cl)c3)ncc2F)cc(C(F)(F)F)c1 [compound 822]			≥ 4.70	≥ 4.70
